Assay results published in patent US20240284907A1, “NOVEL DERIVATIVES OF NON-CODED AMINO ACIDS AND THEIR USE AS HERBICIDES” (FortePhest LTD., priority 2021, published 2024).

system: Seeds of Lettuce R. (Super-Jericho); assay: Filter paper bioassay with lettuce seeds: germination and early plant development, Minimal Effective Concentration (MEC); assay type: in vivo; conditions: lettuce seeds on filter paper, 0 to 1 mmol/l, visually assessed after 6 days
Description: Materials: Seeds of Lettuce R. (Super-Jericho, non-sterilized) were obtained from Ben Shahar Moshe Ltd., 99% purity. The test compounds listed in the Table 2 below were synthetized de novo or purchased from different vendors.
Filter Paper Bioassays with Lettuce seeds: The protocol is following Bertin et al. 2009 and Movellan et al. 2014 with specified modifications as described below.
Seeds were placed on Whatman no. 1 filter paper (Whatman, Middlesex, U.K.) in Petri dishes (10 seeds per plate) with 2.0 ml of aqueous solution of a test material in concentration ranged from 0 (control) to 1 mmol/l were placed in a tray tilted at 45[…]. The trays were kept in dark for 48 hours and then transferred to the growth chamber with 6/18 dark/light cycle for 4 days. Each experiment was performed at least with two repeats.
The development of plants' radicle and shoots were visually assessed 6 days after the beginning of the test to determine Minimal Effective Concentration (MEC) of a test material. In the context of the invention, MEC is defined as the lowest concentration level of a test material that caused deviation (absence of germination or malformation of radicle or shoots) from the plant's development in the Control group.

**Q.** “2,2-difluoro-2-[4-(trifluoromethyl)pyrimidin-2-yl]acetic acid [compound 6652]” was tested. Which “Score (activity score of Minimal Effective Concentration, MEC)” value (shortened to “Score”) did it give?
**A.** Moderate (0.1 mM)

**Q.** With “2,2-difluoro-2-{2-[3-fluoro-5-(trifluoromethyl)pyridin-2-yl]-1,3-thiazol-4-yl}acetic acid [compound 5736]” as the molecule, how does the “Score” value read?
**A.** Moderate (0.1 mM)

**Q.** For “2,2-difluoro-2-{6-[2-(trifluoromethyl)-1,3-thiazol-4-yl]pyridin-2-yl}acetic acid [compound 6658]”, which “Score” value is on record?
**A.** Moderate (0.1 mM)

**Q.** “2-(1,2,3-thiadiazol-4-yl)acetic acid [compound 5748]” was tested. Which “Score” value did it give?
**A.** Moderate (0.1 mM)

**Q.** “2-(1H-1,2,4-triazol-5-yl)ethan-1-amine [compound 592]” was tested. Which “Score” value did it give?
**A.** weak

**Q.** “2-(2,5-dichloro-1,3-thiazol-4-yl)ethan-1-amine [compound 5691]” was tested. Which “Score” value did it give?
**A.** Strong (0.01 mM)

**Q.** How did the “Score” value turn out when “2-(2,5-dichlorothiophen-3-yl)-2-oxoacetic acid [compound 5631]” was run?
**A.** Weak (Higher than 0.1 mM)

**Q.** How did the “Score” value turn out when “2-(2,6-dibromopyridin-4-yl)ethan-1-amine [compound 6612]” was run?
**A.** Moderate (0.1 mM)

**Q.** With “2-(2,6-dichloropyridin-4-yl)-2,2-difluoroacetic acid [compound 6628]” as the molecule, how does the “Score” value read?
**A.** Weak (Higher than 0.1 mM)

**Q.** How did the “Score” value turn out when “2-(2-bromopyridin-4-yl)ethan-1-amine [compound 688]” was run?
**A.** Weak (Higher than 0.1 mM)

**Q.** Which “Score” value does the source give for “2-(2-chloro-1,3-benzothiazol-4-yl)-2,2-difluoroacetic acid [compound 5786]” here?
**A.** Moderate (0.1 mM)

**Q.** “2-(2-ethoxyethoxy)ethyl(2-chloro-1,3-thiazol-4-yl)acetate [compound 5800]” was tested. Which “Score” value did it give?
**A.** Strong (0.01 mM)

**Q.** How did the “Score” value turn out when “2-(2-phenoxypyridin-4-yl)ethan-1-amine [compound 6625]” was run?
**A.** Weak (Higher than 0.1 mM)

**Q.** How did the “Score” value turn out when “2-(3-chloro-1,2-thiazol-4-yl)-2,2-difluoroacetic acid [compound 5773]” was run?
**A.** Moderate (0.1 mM)

**Q.** How did the “Score” value turn out when “2-(4-methylphenyl)-2-oxoethyl(2-chloro-1,3-thiazol-4-yl)acetate [compound 5795]” was run?
**A.** Moderate (0.1 mM)

**Q.** How did the “Score” value turn out when “2-(6-bromopyridin-3-yl)-2,2-difluoroacetic acid [compound 6620]” was run?
**A.** Strong (0.01 mM)

**Q.** Which “Score” value does the source give for “2-(6-bromopyrimidin-4-yl)ethan-1-amine [compound 6621]” here?
**A.** Strong (0.01 mM)

**Q.** “2-(thiophen-3-yl)ethane-1-thiol [compound 5601]” was tested. Which “Score” value did it give?
**A.** Moderate (0.1 mM)

**Q.** “2-[2-(2,5-dichlorothiophen-3-yl)ethyl]-1,4,5,6-tetrahydropyrimidin-5-ol [compound 5777]” was tested. Which “Score” value did it give?
**A.** Weak (Higher than 0.1 mM)

**Q.** With “2-[2-(4-chloro-2-fluorophenyl)-1,3-thiazol-4-yl]-2,2-difluoroacetic acid [compound 5734]” as the molecule, how does the “Score” value read?
**A.** Moderate (0.1 mM)

**Q.** Which “Score” value does the source give for “2-amino-2-(2,5-dichlorothiophen-3-yl)acetic acid [compound 5659]” here?
**A.** Weak (Higher than 0.1 mM)

**Q.** “2-amino-3-(1H-1,2,4-triazol-1-yl)propanoic acid dihydrochloride [compound 5633, 2-amino-3-(1H-1,2,4-triazol-1-yl)propanoic acid dihydrochloride [HCl]]” was tested. Which “Score” value did it give?
**A.** Strong (0.01 mM)

**Q.** Which “Score” value does the source give for “2-bromo-6-phenoxypyridine [compound 6645]” here?
**A.** Strong (0.01 mM)

**Q.** For “2-bromo-N-[(2,5-dichlorothiophen-3-yl)methyl]pyridine-4-carboxamide [compound 5614]”, which “Score” value is on record?
**A.** Moderate (0.1 mM)

**Q.** With “2-bromopyridine-4-carboxamide [compound 6600]” as the molecule, how does the “Score” value read?
**A.** Weak (Higher than 0.1 mM)

**Q.** How did the “Score” value turn out when “2-bromopyridine-4-carboxylic acid [compound 692]” was run?
**A.** Weak (Higher than 0.1 mM)

**Q.** For “2-carbamimidamido-N-[2-(2,5-dichlorothiophen-3-yl)ethyl]acetamide [compound 5726]”, which “Score” value is on record?
**A.** Moderate (0.1 mM)

**Q.** How did the “Score” value turn out when “2-{2-[3-fluoro-5-(trifluoromethyl)pyridin-2-yl]-1,3-thiazol-4-yl}acetic acid [compound 5770]” was run?
**A.** Weak (Higher than 0.1 mM)

**Q.** Which “Score” value does the source give for “2-{[(2,5-dichlorothiophen-3-yl)methyl]amino}acetic acid [compound 5615]” here?
**A.** Weak (Higher than 0.1 mM)

**Q.** With “3-(1H-1,2,4-triazol-1-yl)propanoic acid [compound 5628]” as the molecule, how does the “Score” value read?
**A.** Weak (Higher than 0.1 mM)

**Q.** Which “Score” value does the source give for “3-(thiophen-3-yl)propan-1-amine [compound 593]” here?
**A.** weak

**Q.** For “3-(thiophen-3-yl)propane-1,2-diol [compound 5604]”, which “Score” value is on record?
**A.** Moderate (0.1 mM)

**Q.** For “3-{[(2,5-dichlorothiophen-3-yl)methyl]amino}-2,2-difluoropropanoic acid [compound 5624]”, which “Score” value is on record?
**A.** Weak (Higher than 0.1 mM)

**Q.** “4-(2,5-dichlorothiophen-3-yl)butanoic acid [compound 597]” was tested. Which “Score” value did it give?
**A.** Moderate (0.1 mM)

**Q.** Which “Score” value does the source give for “6-bromopyridine-2-carbonitrile [compound 6670]” here?
**A.** Weak (Higher than 0.1 mM)

**Q.** `O=C(O)C(O)Cc1cc(Cl)sc1Cl` (stereo not shown) [compound 585, 3-(2,5-dichlorothiophen-3-yl)-2-hydroxypropanoic acid] was tested. Which “Score” value did it give?
**A.** moderate

**Q.** With `NCc1cc(Cl)sc1Cl` [compound 587, 1-(2,5-dichlorothiophen-3-yl)methanamine] as the molecule, how does the “Score” value read?
**A.** weak

**Q.** How did the “Score” value turn out when `NCCc1ccsc1` [compound 588, 2-(thiophen-3-yl)ethan-1-amine] was run?
**A.** weak

**Q.** How did the “Score” value turn out when `OCCc1ccsc1` [compound 589, 2-(thiophen-3-yl)ethan-1-ol] was run?
**A.** strong

**Q.** Which “Score” value does the source give for `NCC(O)c1ccsc1` (stereo not shown) [compound 590, 2-amino-1-(thiophen-3-yl)ethan-1-ol] here?
**A.** weak

**Q.** Which “Score” value does the source give for `NC(=O)Cc1ccsc1` [compound 591, 2-(thiophen-3-yl)acetamide] here?
**A.** moderate

**Q.** `O=C(O)c1nc(Cl)sc1Cl` [compound 596, 2,5-dichloro-1,3-thiazole-4-carboxylic acid] was tested. Which “Score” value did it give?
**A.** Weak (Higher than 0.1 mM)

**Q.** `CCOC(=O)C(NC(C)=O)C(F)(F)c1nnc(CCl)s1` (stereo not shown) [compound 598, ethyl3-[5-(chloromethyl)-1,3,4-thiadiazol-2-yl]-2-acetamido-3,3-difluoropropanoate] was tested. Which “Score” value did it give?
**A.** Weak (Higher than 0.1 mM)
